Measured values as given in article PMC4658560, “Assessment of pharmacokinetic compatibility of short acting CDRI candidate trioxane derivative, 99–411, with long acting prescription antimalarials, lumefantrine and piperaquine” (Scientific Reports, 2015).
Read-outs that look alike come from different tables or passages of the source.

What was measured:
CYP3A4 = system: CYP3A4; set-up: method as in PMID 21503937, PMID 10727880, PMID 11463111; settings: cited from earlier work
P-gp = settings: cited from earlier work
[1] = In situ single-pass intestinal perfusion permeability study; type: in vivo; settings: male, SD, rat, other: single-pass perfusion through the jejunal lumen, rat jejunum, read-out: effective permeability
Protocol: Single-pass intestinal perfusion studies in rats (n = 5 per group) were performed using established methods adapted from the literature. Briefly, male SD rats were fasted overnight for 12 to 16 h with free access to water and anaesthetized using an intra-peritoneal injection of urethane (1 g/kg) and placed on a heated pad to keep normal body temperature. Upon verification of the loss of pain reflex, a midline longitudinal abdominal incision was made, and the lumen of the jejunum (10 cm) was catherised and flushed with 10 ml of saline pre-warmed to 37 °C. The solution of analytes (10 μM) was prepared in perfusion buffer and passed at a flow rate of 0.2 mL/min through the lumen. After allowing 30 min to reach steady-state outlet concentrations, outlet perfusate samples were collected every 15 min for 120 min perfusion period. Phenol red was used as a marker of osmosis/zero permeability. At the end, the length of segment was measured without stretching and finally the animal was euthanized. Samples were analysed by LC-MS/MS after diluting 20 times with mobile phase.

[2] = Pharmacokinetic interaction study, oral administration alone or in combination in rats; type: in vivo, rat; settings: for AUC(0-inf) / CL/F / Cmax / Tmax / Vd/F / half-life / AUC(0-t): rat, plasma, po
Protocol: Rats were divided into five groups (n = 5, each); three control groups (LUME 10 mg/kg, oral, suspension in 0.25% Sodium CMC; PPQ 50 mg/kg, oral, solution in triple distilled water; and 99–411 70 mg/kg, oral, suspension in 0.25% Sodium CMC) and two co-administration group (70 mg/kg of oral 99–411 & 10 mg/kg of oral LUME; and 70 mg/kg of oral 99–411 & 50 mg/kg of oral PPQ). The rats were fasted overnight (14–16 h) prior to the experiment but given free access to water. Blood samples were collected from the retro-orbital plexus into heparinized microfuge tubes at 0.25, 0.50, 1, 3, 6, 9, 11, 13, 15, 24, 48, 72 and 120 h post-dosing and plasma was harvested by centrifuging the blood at 15000 × g for 10 min and stored frozen at –70 ± 10 °C until bioanalysis. Plasma data were subjected to non-compartmental pharmacokinetics analysis using WinNonlin (version 5.1, Pharsight Corporation, Mountain View, USA). The pharmacokinetic parameters were compared using student’s t test. […] The relative bioavailability (RB%) was calculated according to equation 1 as follows: […]

[3] = Stability in rat plasma (autosampler, bench top, freeze/thaw, long-term freezer); type: in vitro ADME
Protocol: Validation was carried out as per US FDA bioanalytical method validation guidelines. The extraction recovery of analytes, through protein precipitation extraction procedure, was determined by comparing the peak areas of extracted plasma (pre-spiked) standard QC samples (n = 6) to those of the post-spiked standards at equivalent concentrations (QC low, QC medium and QC high concentrations for the analytes and 50 ng/mL for IS). Specificity and selectivity was studied by using independent plasma samples from six different rats to investigate the potential interferences at the LC peak region for analyte and IS, using the proposed extraction procedure and chromatographic–MS conditions. Matrix effect was determined by comparing the responses of the post-extracted plasma standard QC samples (n = 6) with the response of analytes from neat standard samples, for all analytes at LLOQ[22]. Calibration curve was constructed using […] calibration standards of LUME and 99–411 and of PPQ and 99–411 (3.9, 7.8, 15.6, 31.25, 62.5, 125, 250 and 500 ng/mL) by spiking 90 μL of pooled drug free rat plasma with the appropriate working standard solution of the analytes (10 μL). The intra-day assay precision and accuracy were estimated by analyzing six replicates at four the QC levels, i.e., 3.9/7.8, 10, 100 and 400 ng/mL,for both the combinations. The inter-assay precision was determined by analyzing the four levels QC samples on three different runs. The criteria for acceptability of the data included accuracy within ± 15% deviation from the nominal values and a precision of within ± 15% relative standard deviation (R.S.D.), except for LLOQ, where it should not exceed ± 20% of accuracy as well as precision. All stability studies were conducted at two concentration levels, i.e. […] The dilution integrity experiment was performed to validate the dilution test to be carried out on higher analyte concentrations (above the upper limit of quantification), which may be encountered during real subject samples analysis. Dilution integrity experiments were carried out by 20 times dilution of plasma samples containing 8000 ng/mL of LUME and 99–411 and PPQ and 99–411 with blank plasma to obtain samples containing 400 ng/mL of the respective combinations.

human P-gp = molecular target: T1, human P-gp (Homo sapiens, UniProt P08183); test: Human P-gp ATPase assay (vanadate-sensitive ATPase activity); type: biochemical; settings: concentration not given
T1 construct: purchased BD Gentest (Woburn, MA)
T1 sequence (P08183 whole entry): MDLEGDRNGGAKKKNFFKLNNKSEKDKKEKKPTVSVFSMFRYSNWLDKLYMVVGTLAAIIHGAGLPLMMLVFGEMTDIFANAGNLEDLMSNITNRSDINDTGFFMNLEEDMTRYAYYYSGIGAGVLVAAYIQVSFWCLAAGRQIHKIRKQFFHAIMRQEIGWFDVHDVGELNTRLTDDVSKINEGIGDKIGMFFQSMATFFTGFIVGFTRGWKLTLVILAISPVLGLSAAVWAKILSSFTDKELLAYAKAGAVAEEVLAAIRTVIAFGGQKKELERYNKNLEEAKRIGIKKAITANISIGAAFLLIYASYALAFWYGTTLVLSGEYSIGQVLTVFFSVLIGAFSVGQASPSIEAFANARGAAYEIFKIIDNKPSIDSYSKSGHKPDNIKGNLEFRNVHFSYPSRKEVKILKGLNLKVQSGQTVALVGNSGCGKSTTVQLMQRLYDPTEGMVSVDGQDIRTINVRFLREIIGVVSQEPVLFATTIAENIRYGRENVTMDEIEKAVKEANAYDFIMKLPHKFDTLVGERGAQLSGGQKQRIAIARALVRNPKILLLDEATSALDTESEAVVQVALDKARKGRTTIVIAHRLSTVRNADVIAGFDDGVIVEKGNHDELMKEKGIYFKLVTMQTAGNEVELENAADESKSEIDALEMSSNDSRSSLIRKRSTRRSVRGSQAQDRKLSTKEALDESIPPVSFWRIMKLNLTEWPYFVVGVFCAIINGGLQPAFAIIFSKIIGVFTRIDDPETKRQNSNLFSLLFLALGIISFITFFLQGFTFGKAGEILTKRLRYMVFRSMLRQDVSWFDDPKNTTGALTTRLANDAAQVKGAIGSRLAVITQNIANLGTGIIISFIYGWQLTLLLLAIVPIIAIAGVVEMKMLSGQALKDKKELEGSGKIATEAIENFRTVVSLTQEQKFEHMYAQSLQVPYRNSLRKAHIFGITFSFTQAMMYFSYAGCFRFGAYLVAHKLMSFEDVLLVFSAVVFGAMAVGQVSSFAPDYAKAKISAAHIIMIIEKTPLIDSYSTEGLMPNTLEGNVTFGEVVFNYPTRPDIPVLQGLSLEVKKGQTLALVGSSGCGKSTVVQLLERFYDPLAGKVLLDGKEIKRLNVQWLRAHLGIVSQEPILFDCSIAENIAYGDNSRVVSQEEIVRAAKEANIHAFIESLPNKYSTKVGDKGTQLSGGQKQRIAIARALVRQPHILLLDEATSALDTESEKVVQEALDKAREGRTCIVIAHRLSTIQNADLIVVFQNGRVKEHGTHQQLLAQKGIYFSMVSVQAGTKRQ

[4] = 10 mg/kg, LUME 10 mg/kg oral alone (control), rats
[5] = 10 mg/kg, LUME 10 mg/kg oral co-administered with 99–411 70 mg/kg, rats
[6] = 50 mg/kg, PPQ 50 mg/kg oral alone (control), rats
[7] = PPQ 50 mg/kg oral co-administered with 99–411 70 mg/kg, rats

In the case of `CCCCN(CCCC)CC(O)c1cc(Cl)cc2c1-c1ccc(Cl)cc1/C2=C/c1ccc(Cl)cc1` (centres unmarked) [LUME, lumefantrine], the CYP3A4 substrate status (CYP3A4) is listed as “CYP3A4 substrates”, the P-gp substrate status (P-gp) is listed as “P-gp substrate” and the Papp at 120 min, 10 μM ([1]; lumefantrine co-perfused with 99–411, 10 μM) is listed as 46.8 ± 13.7 ×10⁻⁶ cm/s. It also gave a Papp at 120 min, 10 μM ([1]; lumefantrine control, 10 μM) of 40.3 ± 4.9 ×10⁻⁶ cm/s, an AUC(0-inf) [2, 4] of 17400 ± 3290 ng·h/mL and a CL/F [2, 4] of 9.83 mL/min/kg. It also gave a Cmax [2, 4] of 1810 ± 750 ng/mL, a Tmax [2, 4] of 3.75 ± 1.5 h and a Vd/F [2, 4] of 39.4 ± 6.26 L/kg. For the same compound, the half-life [2, 4] was 2820 ± 391 min, the AUC(0-t) ([2]; 10 mg/kg, LUME 10 mg/kg oral alone (control), rats n=5, mean ± SD) was 16500 ± 2960 ng·h/mL and the AUC(0-inf) [2, 5] was 16500 ± 3510 ng·h/mL. The AUC(0-t) [2, 5] was 15400 ± 3580 ng·h/mL, the CL/F [2, 5] was 10.5 mL/min/kg and the Cmax [2, 5] was 1740 ± 670 ng/mL. The Tmax [2, 5] was 3.6 ± 1.34 h, the Vd/F [2, 5] was 46.4 ± 16.4 L/kg and the half-life [2, 5] was 3040 ± 613 min. The “Accuracy (%) in stability test” value ([3]; LUME/99-411 method, 10 ng/mL, 6 h (BT, bench top, room temperature)) was 91.73%, the “Accuracy (%) in stability test” value ([3]; LUME/99-411 method, 10 ng/mL, 24 h (AS, autosampler)) was 98.45% and the “Accuracy (%) in stability test” value ([3]; LUME/99-411 method, 10 ng/mL, 15 day at -70 °C) was 97.80%. For the same compound, the “Accuracy (%) in stability test” value ([3]; LUME/99-411 method, 10 ng/mL, FT-3 (three freeze/thaw cycles)) was 91.33%, the “Accuracy (%) in stability test” value ([3]; LUME/99-411 method, 400 ng/mL, 6 h (BT, bench top, room temperature)) was 95.94% and the “Accuracy (%) in stability test” value ([3]; LUME/99-411 method, 400 ng/mL, 24 h (AS, autosampler)) was 100.13%. The “Accuracy (%) in stability test” value ([3]; LUME/99-411 method, 400 ng/mL, 15 day at -70 °C) was 101.30% and the “Accuracy (%) in stability test” value ([3]; LUME/99-411 method, 400 ng/mL, FT-3 (three freeze/thaw cycles)) was 100.96%.
In the case of `Clc1ccc2c(N3CCN(CCCN4CCN(c5ccnc6cc(Cl)ccc56)CC4)CC3)ccnc2c1` [PPQ, piperaquine], the “increase of Vd/F of PPQ with 99–411 co-administration” value ([2]; oral, rats) is reported as 194.49%, the “increase of clearance (Cl/F) of PPQ with 99–411 co-administration” value ([2]; oral, rats) is reported as 41.94% and the “decrease of AUC0-∞ of PPQ in presence of 99–411” value ([2]; oral, rats, vs PPQ alone, p = 0.0018) is reported as 61.39%. The “decrease of Cmax of PPQ in presence of 99–411” value ([2]; oral, rats, vs PPQ alone, p = 0.0154) was 61.67%, the AUC(0-inf) [2, 6] was 31500 ± 2680 ng·h/mL and the CL/F [2, 6] was 26.7 mL/min/kg. It also gave a Cmax [2, 6] of 890 ± 230 ng/mL, a Tmax [2, 6] of 6.6 ± 1.34 h and a Vd/F [2, 6] of 49 ± 8.38 L/kg. It also gave a half-life [2, 6] of 1290 ± 263 min, an AUC(0-t) ([2]; 50 mg/kg, PPQ 50 mg/kg oral alone (control), rats n=5, mean ± SD) of 28100 ± 2790 ng·h/mL and an AUC(0-inf) [2, 7] of 19400 ± 5290 ng·h/mL. The AUC(0-t) [2, 7] was 17000 ± 5030 ng·h/mL, the CL/F [2, 7] was 45.5 mL/min/kg and the Cmax [2, 7] was 540 ± 110 ng/mL. For the same compound, the Tmax [2, 7] was 6 h, the Vd/F [2, 7] was 166 ± 71.7 L/kg and the half-life [2, 7] was 2500 ± 707 min. For the same compound, the “Accuracy (%) in stability test” value ([3]; PPQ/99-411 method, 10 ng/mL, 6 h (BT, bench top, room temperature)) was 99.31%, the “Accuracy (%) in stability test” value ([3]; PPQ/99-411 method, 10 ng/mL, 24 h (AS, autosampler)) was 105.78% and the “Accuracy (%) in stability test” value ([3]; PPQ/99-411 method, 10 ng/mL, 15 days at -70 °C) was 106.75%. The “Accuracy (%) in stability test” value ([3]; PPQ/99-411 method, 10 ng/mL, FT-3 (three freeze/thaw cycles)) was 99.51%, the “Accuracy (%) in stability test” value ([3]; PPQ/99-411 method, 400 ng/mL, 6 h (BT, bench top, room temperature)) was 102.13% and the “Accuracy (%) in stability test” value ([3]; PPQ/99-411 method, 400 ng/mL, 24 h (AS, autosampler)) was 102.48%. The “Accuracy (%) in stability test” value ([3]; PPQ/99-411 method, 400 ng/mL, 15 days at -70 °C) was 103.59% and the “Accuracy (%) in stability test” value ([3]; PPQ/99-411 method, 400 ng/mL, FT-3 (three freeze/thaw cycles)) was 100.98%.
In the case of `CC(C)NCC(O)COc1cccc2ccccc12` (centres unmarked) [propranolol], the “basal ATPase activity in the presence of the negative control” value (human P-gp) is reported as 0.96.
